Measurements as given in ChEMBL document CHEMBL3244423, “Cardioselectivity as a function of molecular structure in beta-adrenoceptor blocking agents of the 1-(para-substituted aryloxy)-3-(isopropylamino)propan-2-ol type” (J Med Chem, 1978).
Calls of active or inactive are those of the source. The calls are words filed in the database; no cut-off is given here.

What was measured:
[1] = target: Beta-1 adrenergic receptor (Rattus norvegicus, UniProt P18090); experiment: Antagonist activity at beta1 adrenergic receptor in isolated rat atria; details: read-out: pA2 (converted)
Beta-1 adrenergic receptor, sequence (P18090 whole entry): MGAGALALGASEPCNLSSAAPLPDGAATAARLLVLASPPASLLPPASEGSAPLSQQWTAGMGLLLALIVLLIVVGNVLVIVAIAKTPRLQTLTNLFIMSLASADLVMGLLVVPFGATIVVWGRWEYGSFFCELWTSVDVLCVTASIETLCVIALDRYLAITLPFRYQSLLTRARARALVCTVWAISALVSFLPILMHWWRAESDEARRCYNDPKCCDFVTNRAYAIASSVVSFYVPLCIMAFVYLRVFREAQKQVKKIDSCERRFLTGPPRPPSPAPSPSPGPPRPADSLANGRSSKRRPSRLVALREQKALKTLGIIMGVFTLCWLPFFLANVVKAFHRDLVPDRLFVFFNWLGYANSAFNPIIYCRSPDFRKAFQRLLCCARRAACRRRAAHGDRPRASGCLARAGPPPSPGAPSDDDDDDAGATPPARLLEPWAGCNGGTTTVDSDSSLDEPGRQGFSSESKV

[2] = target: Beta-2 adrenergic receptor (Rattus norvegicus, UniProt P10608); experiment: Antagonist activity at beta2 adrenergic receptor in isolated rat stomach fundus; details: read-out: pA2 (converted)
Beta-2 adrenergic receptor, sequence (P10608 whole entry): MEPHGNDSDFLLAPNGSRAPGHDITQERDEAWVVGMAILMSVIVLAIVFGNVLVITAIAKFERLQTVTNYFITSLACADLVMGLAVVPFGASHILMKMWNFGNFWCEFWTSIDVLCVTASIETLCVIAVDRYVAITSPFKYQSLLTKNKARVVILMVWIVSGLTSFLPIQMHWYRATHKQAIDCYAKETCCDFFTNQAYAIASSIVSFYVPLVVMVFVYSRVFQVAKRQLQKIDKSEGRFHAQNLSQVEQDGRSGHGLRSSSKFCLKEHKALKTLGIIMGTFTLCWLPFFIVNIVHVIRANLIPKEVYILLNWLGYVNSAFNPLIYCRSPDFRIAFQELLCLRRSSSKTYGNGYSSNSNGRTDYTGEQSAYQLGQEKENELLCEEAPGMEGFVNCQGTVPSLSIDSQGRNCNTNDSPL

[3] = Selectivity ratio of beta1 adrenergic receptor in isolated rat atria to beta2 adrenergic receptor in isolated rat stomach fundus
Felis catus [4] = experiment: In vivo antagonist activity at beta1 adrenergic receptor in cat assessed as myocardial activity; type: functional, organism-based; details: Myocardium, read-out: pA2 (converted)
Felis catus [5] = experiment: In vivo antagonist activity at beta2 adrenergic receptor in cat assessed as vascular activity; type: organism-based; details: read-out: pA2 (converted)
Felis catus [6] = species: Felis catus; experiment: Selectivity ratio of antagonist activity at beta1 adrenergic receptor in cat to antagonist activity at beta2 adrenergic receptor in cat
[7] = target: Beta-1 adrenergic receptor (Rattus norvegicus) (UniProt P18090); experiment: Agonist activity at beta1 adrenergic receptor in isolated rat atria in presence of propranolol
Beta-1 adrenergic receptor (Rattus norvegicus), sequence (P18090 whole entry, looked up): as the sequence (P18090 whole entry) above

[8] = target: Beta-2 adrenergic receptor (Rattus norvegicus) (UniProt P10608); experiment: Agonist activity at beta2 adrenergic receptor in isolated rat stomach fundus in presence of propranolol
Beta-2 adrenergic receptor (Rattus norvegicus), sequence (P10608 whole entry, looked up): as the sequence (P10608 whole entry) above

Row | Compound | Kb [1] | Kb [2] | Selectivity ratio [3] | Kb (Felis catus [4]) | Kb (Felis catus [5]) | Selectivity ratio (Felis catus [6]) | Activity [7] | Activity [8]
1 | CCc1ccc(OCC(O)CNC(C)C)cc1 (racemic) | 0.0631 µM | 0.0316 µM | 0.5 |  |  |  |  | 
2 | CNC(=O)c1ccc(OCC(O)CNC(C)C)cc1 (racemic) | 3.63 µM | 1000 µM | 275 |  |  |  |  | 
3 | CC(C)NCC(O)COc1ccc(C(N)=O)cc1 (racemic) | 10 µM | 15.8 µM | 1.6 |  |  |  |  | 
4 | CC(C)NCC(O)COc1ccc2c(c1)CCCNC2=O (racemic) | 135 µM | 81.3 µM | 0.6 |  |  |  |  | 
5 | CC(C)NCC(O)COc1ccc2c(c1)OCCNC2=O (racemic) | 18.2 µM | 45.7 µM | 2.5 |  |  |  |  | 
6 | CC(C)NCC(O)COc1ccc2c(c1)CCCC(=O)N2 (racemic) |  |  |  | 10 µM | 10 µM | 1 |  | 
7 | CC(C)NCC(O)COc1ccc2c(c1)OCC(=O)N2 (racemic) |  |  |  | 2.51 µM | 3.16 µM | 1.3 |  | 
8 | CCCc1ccc(OCC(O)CNC(C)C)cc1.Cl (racemic) | 0.0251 µM | 0.158 µM | 6.5 |  |  |  |  | 
9 | C/C=C/c1ccc(OCC(O)CNC(C)C)c(OC)c1 (racemic) | 0.0501 µM | 1.26 µM | 25 |  |  |  |  | 
10 | C/C=C\c1ccc(OCC(O)CNC(C)C)c(OC)c1 (racemic) | 0.2 µM | 0.02 µM | 0.1 |  |  |  |  | 
11 | CC(C)NCC(O)COc1ccc(CC2(C)OCCO2)cc1 (racemic) | > 316 µM | > 316 µM |  |  |  |  | inactive | inactive
12 | CC(=O)Nc1ccc(OCC(O)CNC(C)C)cc1 (stereo not given) [PRACTOLOL] | 0.339 µM |  |  |  |  |  |  | 
